Columns and labels:
Pyrenophora teres = test: In vivo preventive test on Pyrenophora teres (barley); settings: 500 ppm of active ingredient; barley plants, preventive spray; grading 14 days after contamination
In short: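 Barley plants ('Plaisant', 1-leaf stage) were sprayed with compound in acetone/tween/DMSO/water, then inoculated 24 h later with P. teres spores (12 000 spores per mL). Plants were held 48 h at 20° C./100% RH, then 12 days at 70-80% RH. Efficacy (%) was graded 14 days after inoculation relative to solvent-treated controls.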

Leptosphaeria nodorum = test: In vivo preventive test on Leptosphaeria nodorum (wheat); settings: 100 ppm, evaluated 7-9 days after inoculation
Method: Solvent: 49 parts by weight of N,N-dimethylacetamide
Emulsifier: 1 part by weight of alkylarylpolyglycol ether
To produce a suitable preparation of active compound, 1 part by weight of active compound or active compound combination is mixed with the stated amounts of solvent and emulsifier, and the concentrate is diluted with water to the desired concentration.
To test for preventive activity, young plants are sprayed with the preparation of active compound or active compound combination at the stated rate of application.
After the spray coating has been dried, the plants are sprayed with a spore suspension of Leptosphaeria nodorum. The plants remain for 48 hours in an incubation cabinet at approximately 20° C. and a relative atmospheric humidity of approximately 100%.
The plants are placed in the greenhouse at a temperature of approximately 22° C. and a relative atmospheric humidity of approximately 80%.
The test is evaluated 7-9 days after the inoculation. 0% means an efficacy which corresponds to that of the untreated control, while an efficacy of 100% means that no disease is observed.
Under these conditions, excellent (at least 95%) protection is observed at a dose of 100 ppm of active ingredient with the following compound from table G: […]

`Cc1nn(C)c(F)c1C(=O)N(C1CC1)C(C)c1ccccc1C1=CCCC1` (racemic) [I.1] gave an Efficacy (Pyrenophora teres) of 97% and an Efficacy (Leptosphaeria nodorum) of 95%.
